Results published in ChEMBL document CHEMBL1201862, “PubChem BioAssay data set” (2004).
“And” between values parts separate entries of the source, which are not always exact repeats. Equal entries are not always repeated. The source made the active and inactive calls.

Tests used:
[1] = HeLa 2N DNA content increase, dose response, cell-based, IC50 (AID 1117349); type: functional
[2] = Concentration-dependent survival of SW480 colon cancer line, luminescence detection with CellTiter-Glo, half-maximal inhibitory concentration (AID 1117338); type: functional
[3] = RKO cell viability reduction, dose response, CellTiter-Glo luminescence (AID 1117322); type: functional
[4] = cytotoxicity toward HCT116 cells – cell-based, CellTiter-Glo luminescence, IC50, dose response (AID 1117332); type: functional; details: HCT-116
[5] = SNU-C1 cell viability reduction, dose response, CellTiter-Glo luminescence (AID 1117323); type: functional, cell-based
[6] = half-maximal inhibitory concentration for glucagon-like peptide-1 release, STC-1 cell line, dose-response (AID 1117345); type: functional, cell-based
[7] = cytotoxicity toward Colo320 cells – cell-based, CellTiter-Glo luminescence, IC50, dose response (AID 1117334); type: functional; details: COLO 320
[8] = HeLa 4N DNA content increase, dose response, cell-based, IC50 (AID 1117351); type: functional
[9] = cytotoxicity toward HT-29 cells – cell-based, CellTiter-Glo luminescence, IC50, dose response (AID 1117330); type: functional
[10] = CellTiter-Glo luminescent dose response of DLD-1 viability loss (AID 1117352); type: functional
[11] = HCT116 cell viability decrease, GSK3B pretreatment – CellTiter-Glo, IC50, dose response (AID 1117339); type: functional; details: HCT-116
[12] = Glucagon-like peptide 1 release potency, NCI-H716 cell line, dose-response, half-maximal inhibitory concentration (AID 1117344); type: functional, cell-based
[13] = molecular target: C-X-C chemokine receptor type 4 (Homo sapiens, UniProt P61073); test: SAR analysis of small molecule antagonists of the CXCR6 receptor using a CXCR4 receptor luminescent beta-arrestin counterscreen.; type: functional
Chain of C-X-C chemokine receptor type 4 (P61073 whole entry): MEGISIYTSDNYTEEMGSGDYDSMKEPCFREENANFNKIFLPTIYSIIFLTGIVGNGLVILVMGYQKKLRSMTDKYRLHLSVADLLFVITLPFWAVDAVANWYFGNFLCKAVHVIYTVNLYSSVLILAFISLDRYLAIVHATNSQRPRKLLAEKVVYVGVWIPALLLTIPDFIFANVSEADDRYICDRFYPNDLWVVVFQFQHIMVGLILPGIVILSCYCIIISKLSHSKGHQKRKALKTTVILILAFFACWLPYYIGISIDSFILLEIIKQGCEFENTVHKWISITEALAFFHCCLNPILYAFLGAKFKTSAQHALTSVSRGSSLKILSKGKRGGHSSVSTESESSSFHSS

[14] = molecular target: C-C chemokine receptor type 6 (Homo sapiens, UniProt P51684); test: SAR analysis of small molecule antagonists of the CXCR6 receptor using a CCR6 receptor luminescent beta-arrestin counterscreen.; type: functional
Chain of C-C chemokine receptor type 6 (P51684 whole entry): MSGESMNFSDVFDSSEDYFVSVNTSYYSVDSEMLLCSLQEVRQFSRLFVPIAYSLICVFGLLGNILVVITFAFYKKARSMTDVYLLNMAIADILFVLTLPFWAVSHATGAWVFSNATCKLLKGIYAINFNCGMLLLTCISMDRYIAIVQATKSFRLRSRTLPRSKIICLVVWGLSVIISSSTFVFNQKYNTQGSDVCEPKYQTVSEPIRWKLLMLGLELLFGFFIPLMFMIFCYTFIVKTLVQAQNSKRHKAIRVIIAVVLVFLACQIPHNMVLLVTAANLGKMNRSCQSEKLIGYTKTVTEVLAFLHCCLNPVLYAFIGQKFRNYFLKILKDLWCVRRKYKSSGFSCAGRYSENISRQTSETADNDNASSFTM

[15] = A375 melanoma cell viability loss, dose response, counter-screen for MITF inhibitor project, CellTiter-Glo luminescence, dry powder, set 4 (AID 624364); type: functional, cell-based; details: A-375;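 also: A375 melanoma cells are MITF independent so this is a counter screen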
[16] = A375 melanoma cell cytotoxicity, dose response, counter-screen for MITF inhibitor project, CellTiter-Glo luminescence, dry powder, set 2 (AID 624489); type: functional, cell-based; details: A-375;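 also: actives are compounds lowering A375 viability meaning general cytotoxicity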
[17] = Artemis endonuclease inhibitor potency, dose response, biochemical, fluorescence intensity (AID 720701); type: functional;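 also: Artemis endonuclease enzyme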
[18] = A549 cell cytotoxicity, dose response, cytotoxicity control, 24 h, CellTiter-Glo luminescence, cherry-picks (AID 1053115); type: functional, cell-based; details: A549, 24 h
Aminopeptidase N = molecular target: T1, Aminopeptidase N (Plasmodium falciparum FcB1/Columbia, UniProt O96935); test: P. falciparum M1AAP inhibitors, biochemical, fluorogenic H-Leu-NHMec substrate, 1536-well (AID 1445); set-up: species or system Plasmodium falciparum 3D7, 3D7
T1 sequence (O96935 whole entry): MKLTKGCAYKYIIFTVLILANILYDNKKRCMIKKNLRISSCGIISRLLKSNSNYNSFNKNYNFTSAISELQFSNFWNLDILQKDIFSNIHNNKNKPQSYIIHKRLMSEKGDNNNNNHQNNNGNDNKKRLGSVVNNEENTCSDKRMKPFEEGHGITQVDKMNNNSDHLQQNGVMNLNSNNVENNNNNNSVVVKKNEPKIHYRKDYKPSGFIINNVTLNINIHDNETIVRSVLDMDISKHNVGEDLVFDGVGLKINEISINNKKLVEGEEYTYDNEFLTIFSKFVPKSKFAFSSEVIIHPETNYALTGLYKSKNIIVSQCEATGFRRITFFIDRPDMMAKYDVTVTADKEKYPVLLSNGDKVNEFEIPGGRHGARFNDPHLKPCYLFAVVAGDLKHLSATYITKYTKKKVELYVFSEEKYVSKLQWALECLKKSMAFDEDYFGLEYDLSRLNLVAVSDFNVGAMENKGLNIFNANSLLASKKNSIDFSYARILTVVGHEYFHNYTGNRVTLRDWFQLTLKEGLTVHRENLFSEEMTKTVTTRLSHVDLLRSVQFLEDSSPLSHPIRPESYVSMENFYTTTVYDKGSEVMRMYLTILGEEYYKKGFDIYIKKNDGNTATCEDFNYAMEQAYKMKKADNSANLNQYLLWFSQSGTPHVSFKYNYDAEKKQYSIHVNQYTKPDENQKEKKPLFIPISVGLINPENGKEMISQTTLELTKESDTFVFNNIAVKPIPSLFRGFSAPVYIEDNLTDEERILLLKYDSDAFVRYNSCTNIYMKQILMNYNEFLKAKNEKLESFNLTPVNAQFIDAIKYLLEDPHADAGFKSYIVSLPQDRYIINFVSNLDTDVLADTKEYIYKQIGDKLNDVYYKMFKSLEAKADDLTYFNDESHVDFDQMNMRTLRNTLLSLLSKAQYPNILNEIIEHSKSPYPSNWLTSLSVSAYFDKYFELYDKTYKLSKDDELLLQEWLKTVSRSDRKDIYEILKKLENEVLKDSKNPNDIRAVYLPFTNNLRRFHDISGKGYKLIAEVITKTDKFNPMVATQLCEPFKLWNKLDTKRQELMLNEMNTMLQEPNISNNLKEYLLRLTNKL

SUMO-activating enzyme [19] = molecular target: T2, SUMO-activating enzyme (Homo sapiens, UniProt Q9UBT2); test: SUMOylation inhibitor hit validation, confirmation, SUMOylation inhibitor project, biochemical, AlphaScreen (AID 2018); type: functional
T2 sequence (Q9UBE0 whole entry): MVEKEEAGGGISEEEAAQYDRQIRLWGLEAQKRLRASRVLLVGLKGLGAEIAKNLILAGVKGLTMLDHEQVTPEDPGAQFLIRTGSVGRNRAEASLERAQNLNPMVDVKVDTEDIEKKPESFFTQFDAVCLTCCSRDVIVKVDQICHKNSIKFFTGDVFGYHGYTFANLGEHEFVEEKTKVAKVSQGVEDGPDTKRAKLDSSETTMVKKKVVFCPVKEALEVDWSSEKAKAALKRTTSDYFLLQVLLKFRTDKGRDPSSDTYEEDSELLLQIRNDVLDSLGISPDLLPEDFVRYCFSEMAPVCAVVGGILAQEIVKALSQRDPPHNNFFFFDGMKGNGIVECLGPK
T2 sequence (Q9UBT2 whole entry): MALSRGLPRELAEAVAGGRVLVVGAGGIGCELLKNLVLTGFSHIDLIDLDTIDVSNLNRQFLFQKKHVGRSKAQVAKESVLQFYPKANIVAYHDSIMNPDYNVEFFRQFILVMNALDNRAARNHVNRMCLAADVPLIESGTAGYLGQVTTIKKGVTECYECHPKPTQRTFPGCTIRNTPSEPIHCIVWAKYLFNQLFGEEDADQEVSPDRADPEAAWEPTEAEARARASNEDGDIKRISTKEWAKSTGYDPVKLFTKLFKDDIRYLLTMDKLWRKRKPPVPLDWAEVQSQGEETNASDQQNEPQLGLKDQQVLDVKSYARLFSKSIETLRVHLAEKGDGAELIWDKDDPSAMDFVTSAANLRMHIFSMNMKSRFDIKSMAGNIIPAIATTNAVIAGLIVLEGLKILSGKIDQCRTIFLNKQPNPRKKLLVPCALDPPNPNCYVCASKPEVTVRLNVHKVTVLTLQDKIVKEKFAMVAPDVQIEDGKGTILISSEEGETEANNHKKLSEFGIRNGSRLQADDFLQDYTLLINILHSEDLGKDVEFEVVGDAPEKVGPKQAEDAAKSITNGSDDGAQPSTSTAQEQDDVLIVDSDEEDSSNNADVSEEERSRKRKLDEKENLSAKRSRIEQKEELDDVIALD

SUMO-activating enzyme [20] = molecular target: T2, SUMO-activating enzyme; test: inhibitors of in vitro SUMOylation cascade, primary screen, biochemical, HTRF, uHTS (AID 2006); type: protein-complex assay
[21] = molecular target: E3 ubiquitin-protein ligase UHRF1 (Homo sapiens, UniProt Q96T88); test: Counterscreen for inhibitors of 5-meCpG-binding domain protein 2 (MBD2): TRFRET-based biochemical high throughput dose response assay to identify inhibitors of binding of ubiquitin-like with PHD and ring finger domains 1 (UHRF1) to methylated oligonucleotide.
Chain of E3 ubiquitin-protein ligase UHRF1 (Q96T88 whole entry, the tested form may be a part): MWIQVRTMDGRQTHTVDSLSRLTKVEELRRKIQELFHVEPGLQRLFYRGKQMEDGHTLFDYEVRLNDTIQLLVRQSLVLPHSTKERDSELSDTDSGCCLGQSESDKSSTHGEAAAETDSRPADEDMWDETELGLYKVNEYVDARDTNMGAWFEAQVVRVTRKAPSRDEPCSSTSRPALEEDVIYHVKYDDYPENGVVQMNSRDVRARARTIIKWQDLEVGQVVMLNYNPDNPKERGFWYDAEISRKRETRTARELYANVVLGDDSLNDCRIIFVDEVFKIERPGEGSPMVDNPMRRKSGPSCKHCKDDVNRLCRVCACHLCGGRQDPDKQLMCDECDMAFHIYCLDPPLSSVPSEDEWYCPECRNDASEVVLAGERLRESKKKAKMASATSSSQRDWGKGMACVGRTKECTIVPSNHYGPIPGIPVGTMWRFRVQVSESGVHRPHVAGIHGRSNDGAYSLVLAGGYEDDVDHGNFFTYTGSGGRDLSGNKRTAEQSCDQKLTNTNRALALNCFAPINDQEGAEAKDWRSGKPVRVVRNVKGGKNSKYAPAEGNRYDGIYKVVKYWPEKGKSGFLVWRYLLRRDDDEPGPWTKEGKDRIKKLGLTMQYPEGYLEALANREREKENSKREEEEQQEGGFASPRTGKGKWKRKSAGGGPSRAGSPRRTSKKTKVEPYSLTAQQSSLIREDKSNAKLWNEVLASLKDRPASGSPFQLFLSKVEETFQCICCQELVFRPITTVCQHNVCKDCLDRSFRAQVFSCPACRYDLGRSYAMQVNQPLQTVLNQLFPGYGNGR

[22] = P. falciparum 3D7-ScDHODH growth inhibitors, dose response, SYBR Green, dry powder samples (AID 1159570); type: functional, cell-based;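 also: parasite growth measured after 72 hours of compound exposure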
[23] = HepG2 cell cytotoxicity, dose response, cytotoxicity control, plate reader, dry powder samples (AID 1159569); type: functional, cell-based;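 also: inhibitor potency with signal falling toward the positive control level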
[24] = P. falciparum Dd2 growth inhibitors, dose response, SYBR Green, cherry-picked samples (AID 1159567); type: functional, cell-based
[25] = P. falciparum Dd2 growth inhibitors, dose response, SYBR Green, dry powder samples (AID 1159566); type: functional, cell-based;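 also: potency for growth inhibition with lower SYBR green DNA signal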
[26] = P. falciparum ATP4 D1247Y mutant growth inhibitors, dose response, NITD609-resistant line, SYBR Green, dry powder (AID 1159571); type: functional, cell-based;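 also: parasites synchronized at ring stage by sorbitol before testing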
Paired box protein Pax-8 = Paired box protein Pax-8 (Homo sapiens, UniProt Q06710); test: inhibitors of PAX8-driven TPO luciferase reporter, dose response, RMG-I cells, cherry-pick (AID 687027); type: functional, cell-based;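 also: luciferase reporter driven by Pax8 target thyroperoxidase promoter measured by SteadyGlo luminescence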
Chain of Paired box protein Pax-8 (Q06710 whole entry): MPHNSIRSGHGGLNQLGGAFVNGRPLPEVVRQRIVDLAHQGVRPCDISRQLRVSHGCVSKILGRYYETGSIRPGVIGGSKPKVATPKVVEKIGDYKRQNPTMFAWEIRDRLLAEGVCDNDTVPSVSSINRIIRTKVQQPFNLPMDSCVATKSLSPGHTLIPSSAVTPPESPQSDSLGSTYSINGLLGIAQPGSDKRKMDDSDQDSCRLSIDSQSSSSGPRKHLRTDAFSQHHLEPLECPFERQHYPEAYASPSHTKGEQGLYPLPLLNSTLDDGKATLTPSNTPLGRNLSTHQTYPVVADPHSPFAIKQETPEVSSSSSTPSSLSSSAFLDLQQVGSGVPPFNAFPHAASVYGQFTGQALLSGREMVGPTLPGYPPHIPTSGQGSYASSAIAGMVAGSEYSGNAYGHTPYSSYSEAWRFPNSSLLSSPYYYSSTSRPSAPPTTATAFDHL

[27] = A2780 ovarian cancer cell cytotoxicity, dose response, cytotoxicity control, plate reader, dry powder samples (AID 743046); type: functional, cell-based
[28] = NIH:OVCAR-3 ovarian cancer cell cytotoxicity, dose response, PAX8 inhibitor project, plate reader, dry powder samples (AID 743044); type: functional, cell-based
[29] = cytotoxicity in OVCAR8 ovarian cancer cells, dose response, PAX8 project, cell-based, plate reader, dry powder samples (AID 743197); type: functional; details: OVCAR-8
[30] = HIV Env cell-cell fusion inhibitors, dose response, HIV entry, plate reader, dry powder (AID 687023); type: functional, cell-based
[31] = CEM21 cell cytotoxicity, dose response, cytotoxicity control, plate reader, dry powder (AID 687026); type: functional, cell-based
[32] = CTGF mRNA reduction under YAP1 overexpression, dose response, mechanism study for YAP1 pathway inhibitor project, DLD1 cells, RT-qPCR, cherry-pick (AID 1053127); type: functional, cell-based; details: DLD-1
NADPH oxidase 1 = NADPH oxidase 1 (Homo sapiens, UniProt Q9Y5S8); test: Late-stage luminescence-based cell-based dose response assay to identify inhibitors of NADPH oxidase 1 (NOX1): Synthesized analogs.; type: functional
Chain of NADPH oxidase 1 (Q9Y5S8 whole entry): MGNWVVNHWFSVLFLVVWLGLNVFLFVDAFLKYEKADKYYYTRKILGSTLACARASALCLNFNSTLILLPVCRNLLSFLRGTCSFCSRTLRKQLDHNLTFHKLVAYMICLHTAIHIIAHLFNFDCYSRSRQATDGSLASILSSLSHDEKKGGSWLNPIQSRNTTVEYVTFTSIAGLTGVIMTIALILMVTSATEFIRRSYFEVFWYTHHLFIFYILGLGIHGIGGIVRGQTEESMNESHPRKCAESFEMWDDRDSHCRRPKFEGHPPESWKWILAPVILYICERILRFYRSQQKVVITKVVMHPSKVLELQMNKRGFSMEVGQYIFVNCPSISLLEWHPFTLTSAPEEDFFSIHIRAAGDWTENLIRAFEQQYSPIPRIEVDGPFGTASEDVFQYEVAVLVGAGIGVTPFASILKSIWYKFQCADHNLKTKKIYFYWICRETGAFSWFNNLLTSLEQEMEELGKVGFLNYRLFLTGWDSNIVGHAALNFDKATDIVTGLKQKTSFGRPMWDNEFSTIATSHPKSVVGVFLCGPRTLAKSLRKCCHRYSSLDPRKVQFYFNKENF

[33] = Luminescence Cell-Based Dose Confirmation HTS to Identify Activators of 5'UTR Stem-Loop Driven Alpha-Synuclein mRNA Translation in H4 Neuroglioblastoma Cells. [Related pubchem assays: 1829 (Project Summary), 1814 (Primary HTS)]; type: functional
[34] = Luminescence Cell-Based Dose Response HTS to Identify Activators of Luciferase Translation or Activity in H4 […] Cells. [Related pubchem assays: 1829 (Project Summary), 1814 (Primary HTS)]; type: functional
H4 = test: Luminescence Cell-Based Dose Response HTS to Identify Activators of 5'UTR Stem-Loop Driven Prion Protein mRNA Translation in H4 Neuroglioblastoma Cells. [Related pubchem assays: 1829 (Project Summary), 1814 (Primary HTS)]; type: functional; details: Homo sapiens

**Q.** For `COC(=O)Nc1nc2cc(Sc3ccccc3)ccc2[nH]1` [FENBENDAZOLE], which IC50 [1] is on record?
**A.** Its IC50 is 0.204 µM (active).

**Q.** And the IC50 [2]?
**A.** The IC50 was > 20 µM (inactive).

**Q.** And the IC50 [3]?
**A.** The IC50 was 0.001 µM (active).

**Q.** What about the IC50 [4] of the same compound?
**A.** The IC50 was 0.001 µM (active).

**Q.** And the IC50 [5]?
**A.** The IC50 was > 20 µM (inactive).

**Q.** And the IC50 [6]?
**A.** The IC50 was > 20 µM (inactive).

**Q.** And the IC50 [7]?
**A.** Its IC50 is > 20 µM (inactive).

**Q.** And the IC50 [8]?
**A.** Its IC50 is 0.195 µM (active).

**Q.** And the IC50 [9]?
**A.** The IC50 was > 20 µM (inactive).

**Q.** What about the IC50 [10] of the same compound?
**A.** Its IC50 is 0.0673 µM (active).

**Q.** And the IC50 [11]?
**A.** The IC50 was 0.003 µM (active).

**Q.** And the IC50 [12]?
**A.** Its IC50 is > 40 µM (inactive).

**Q.** What does the source list for `COc1ccc(NC(=O)CN2C3CCCC2CC(NC(=O)c2cc(OC)c(OC)c(OC)c2)C3)cc1` (stereo not drawn)?
**A.** IC50 [13]: > 79 µM (inactive); IC50 [14]: > 79 µM (inactive)

**Q.** Which results are given for `C=CCNC1=C(N2CCN(CC)CC2)C(=O)c2ccccc2C1=O`?
**A.** AC50 [15]: 29.3 µM (active); AC50 [16]: 13.8 µM (active)

**Q.** Which IC50 [17] does the source give for `Cc1ccc(C(=O)N/C(=C\c2ccc(-c3cc(Cl)ccc3Cl)o2)C(=O)NCc2cccnc2)cc1` here?
**A.** The IC50 was > 20 µM (inactive).

**Q.** With `N#Cc1ccc(-c2ccc3c(c2)[C@@H]2[C@@H](CCN2C(=O)C2CCCCC2)[C@H](CO)N3)cc1` as the compound, how does the AC50 [18] read?
**A.** The AC50 was 46.8 µM (active).

**Q.** What does the source list for `CCCN(C(=O)c1cc2c(s1)CCC2)c1c(N)n(Cc2ccccc2)c(=O)[nH]c1=O`?
**A.** IC50 (Aminopeptidase N): 77.2 µM (active); IC50 (SUMO-activating enzyme [19]): 16.7 µM (active); IC50 (SUMO-activating enzyme [20]): 37.7 µM (active); IC50 [21]: > 43.8 µM (inactive)

**Q.** Which AC50 [22] does the source give for `COc1cccc(C#Cc2cnc3c(c2)C(=O)N([C@H](C)CO)C[C@H](C)[C@@H](CN(C)C(=O)C2CCCCC2)O3)c1` here?
**A.** Its AC50 is 1.58 µM (active).

**Q.** And the AC50 [23]?
**A.** Its AC50 is 29.4 µM (active).

**Q.** And the AC50 [24]?
**A.** Its AC50 is 0.722 µM (active).

**Q.** And the AC50 [25]?
**A.** Its AC50 is 0.643 µM (active).

**Q.** And the AC50 [26]?
**A.** Its AC50 is 0.803 µM (active).

**Q.** What does the source list for `O=C(C1CCC1)N1CC(=O)N2[C@H](C1)[C@H](c1ccc(C#Cc3cccc(F)c3)cc1)[C@@H]2CO`?
**A.** AC50 (Paired box protein Pax-8): 10.6 µM (active); AC50 [27]: 18 µM (active); AC50 [28]: 9.85 µM (active); AC50 [29]: > 70 µM (inactive)

**Q.** For `Clc1ccc2c(c1)C(C1=NCCN1)c1ccccc1CS2` (stereo not drawn), which AC50 [30] is on record?
**A.** Its AC50 is 42.5 µM (active) and 54 µM (active).

**Q.** And the AC50 [31]?
**A.** The AC50 was > 70 µM (inactive).

**Q.** With `Cc1ccccc1-c1ccc([C@H]2[C@@H](CO)N3CCCCN(S(=O)(=O)Cc4ccccc4)C[C@@H]23)cc1` as the compound, how does the AC50 [32] read?
**A.** Its AC50 is > 26 µM (inactive).

**Q.** For `c1ccc2c(c1)Nc1cc3ccccc3cc1S2`, which IC50 (NADPH oxidase 1) is on record?
**A.** The IC50 was 7.58 µM (active).

**Q.** And the EC50 [33]?
**A.** Its EC50 is 98.5 µM (active).

**Q.** And the EC50 [34]?
**A.** The EC50 was 6.01 µM (active).

**Q.** And the EC50 (H4)?
**A.** The EC50 was 5.77 µM (active).
